Experimental findings from ChEMBL document CHEMBL3046600, “1-Phenoxyalkyl-4-[(N,N-disubstitutedamino)alkyl]piperazine derivatives as non-imidazole histamine H3-antagonists” (Med Chem Res, 2013) are described below.

Common to all, as to conditions: read-out: pA2 (converted)
Assay [1] deals with T1, Histamine H3 receptor (Cavia porcellus, UniProt Q9JI35). The assay can be described thus: Antagonist activity at histamine H3 receptor in Cavia porcellus (guinea pig) ileum assessed as inhibition of electrically-induced contraction. The format is tissue-based.
T1 sequence (Q9JI35 whole entry): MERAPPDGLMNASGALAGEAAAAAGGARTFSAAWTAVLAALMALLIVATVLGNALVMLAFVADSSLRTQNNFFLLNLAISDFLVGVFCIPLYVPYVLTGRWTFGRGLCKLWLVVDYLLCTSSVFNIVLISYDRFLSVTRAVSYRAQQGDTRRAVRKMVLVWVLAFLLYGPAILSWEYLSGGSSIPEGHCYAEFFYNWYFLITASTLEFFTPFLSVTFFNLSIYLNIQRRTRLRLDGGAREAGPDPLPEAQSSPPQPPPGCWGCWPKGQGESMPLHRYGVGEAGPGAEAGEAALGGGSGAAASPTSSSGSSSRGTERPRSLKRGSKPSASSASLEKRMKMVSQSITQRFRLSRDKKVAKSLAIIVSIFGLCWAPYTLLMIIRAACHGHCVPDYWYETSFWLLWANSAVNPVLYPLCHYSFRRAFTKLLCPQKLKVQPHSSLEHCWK
The target of assay [2] is T1, Histamine H3 receptor. The assay can be described thus: Antagonist activity at histamine H3 receptor in Cavia porcellus (guinea pig) jejunum assessed as inhibition of electrically-induced contraction.
The target in assay [3] is Histamine H1 receptor (Cavia porcellus, UniProt P31389). The assay can be described thus: Antagonist activity at histamine H1 receptor in Cavia porcellus (guinea pig) ileum assessed as inhibition of histamine-induced contraction.
Sequence of Histamine H1 receptor (P31389 whole entry): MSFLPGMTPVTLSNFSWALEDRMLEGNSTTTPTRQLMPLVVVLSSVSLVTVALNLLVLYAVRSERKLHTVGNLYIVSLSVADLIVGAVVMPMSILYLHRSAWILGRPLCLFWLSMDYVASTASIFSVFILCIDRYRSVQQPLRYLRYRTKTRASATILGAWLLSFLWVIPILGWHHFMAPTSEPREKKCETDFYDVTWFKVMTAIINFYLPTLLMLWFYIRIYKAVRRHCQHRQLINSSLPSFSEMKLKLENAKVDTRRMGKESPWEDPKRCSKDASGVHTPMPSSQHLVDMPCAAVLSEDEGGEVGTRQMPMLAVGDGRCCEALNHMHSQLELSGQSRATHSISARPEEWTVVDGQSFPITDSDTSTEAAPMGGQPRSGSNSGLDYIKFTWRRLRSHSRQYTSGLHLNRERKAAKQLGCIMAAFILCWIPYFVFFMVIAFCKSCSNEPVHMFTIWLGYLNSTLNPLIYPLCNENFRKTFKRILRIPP

SMILES strings stand for the structures. Bounds are passed on as bounds.

`CN(CCCCN1CCN(CCCCCCCOc2ccccc2)CC1)C(=O)c1ccccc1`: the Kb in assay [1] is 105 nM. Same read-out and setting: to `CN(CCCCN1CCN(CCCCCCCOc2ccccc2)CC1)C(=O)C(F)(F)F` belongs 100 nM; to `CC(=O)N(C)CCCCN1CCN(CCCCCCCOc2ccccc2)CC1`, 69.2 nM.

In the case of `NCCCCCCCN1CCN(CCCCCCCOc2ccccc2)CC1`, the Kb in assay [2] was 214 nM. Same read-out and setting: in the case of `NCCCCCCN1CCN(CCCCCCCOc2ccccc2)CC1` it was 214 nM; in that of `NCCCCCN1CCN(CCCCCCCOc2ccccc2)CC1`, 102 nM. `NCCCCN1CCN(CCCCCCCOc2ccccc2)CC1`: the Kb is 66.1 nM in assay [2] and > 100000 nM in assay [3]. As for `NCCN1CCN(CCCCCCCOc2ccccc2)CC1`, the Kb in assay [2] is 380 nM.

For the molecule `NCCCN1CCN(CCCCCCCCCOc2ccccc2)CC1`, the Kb in assay [2] is 102 nM. Same read-out and setting: to `NCCCN1CCN(CCCCCCCCOc2ccccc2)CC1` belongs 145 nM; to `NCCCN1CCN(CCCCCCCOc2ccccc2)CC1`, 91.2 nM. Still for that read-out and setting: in the case of `NCCCN1CCN(CCCCCCOc2ccccc2)CC1` it was 191 nM; in that of `NCCCN1CCN(CCCCCOc2ccccc2)CC1`, 158 nM. Same read-out and setting: in the case of `NCCCN1CCN(CCCCOc2ccccc2)CC1` it was 240 nM. On to `NCCCN1CCN(CCCOc2ccccc2)CC1`, for which, in assay [2], the Kb is 513 nM. The same measure, in the same setting: in the case of `NCCCN1CCN(CCOc2ccccc2)CC1` it was 178 nM.

Regarding `S=C(NC1CCCCC1)N1CCC(c2cnc[nH]2)CC1` [THIOPERAMIDE], the Kb in assay [2] was 2.19 nM.
